The values below come from article PMC7699745, “The Search for New Anticonvulsants in a Group of (2,5-Dioxopyrrolidin-1-yl)(phenyl)Acetamides with Hybrid Structure—Synthesis and In Vivo/In Vitro Studies” (International Journal of Molecular Sciences, 2020).

Several values for one entry are separate records, joined by “and”; a condition that tells them apart may be missing. Equal values may be shown once. Read-outs that look alike come from different tables or passages of the source.

A short description of data set [1]: Metabolic stability in human liver microsomes. The format is in vitro ADME. The note with it: 120 min incubation with HLMs. An excerpt: Human liver microsomes (HLMs) were used for metabolic stability determination. Moreover, the most probable phase I reactions and structures of metabolites were proposed according to ion fragment analyses with the in silico support of MetaSite 6.0.1 software. […] On the other hand, an excellent metabolic stability of compound 24 was observed. Less than 4% of this derivative was converted into double-hydroxylated metabolite M1 (Figures S3, S4, and S7, Supplementary Materials). Finally, two monohydroxylated metabolites (M1, M2) were found in the reaction mixture with HLMs and 30, and around 17% of this compound was metabolized (Figures S5–S7, Supplementary Materials).
These assays were performed on human liver microsomes (HLMs), purchased from Sigma-Aldrich (St. Louis, MO, USA), according to [14].

Data set [2] is described as follows: Parallel artificial membrane permeability assay (PAMPA). (In general: PAMPA measures passive passage across an artificial lipid membrane.)
Method: Passive diffusion was tested in the parallel artificial membrane permeability assay (PAMPA) and expressed as the permeability coefficient (Pe). A highly permeable compound, caffeine (CFN), and a poorly permeable compound, norfloxacin (NFX), were used as the references.
Precoated PAMPA Plate System Gentest™ was provided by Corning, (Tewksbury, MA, USA).
The target of a further data set is CYP2C9 (Homo sapiens, UniProt P11712). As to the kind of experiment: Luminescent CYP2C9 P450-Glo assay. The conditions noted are these: 10 and 25 µM.
CYP2C9, sequence (P11712 whole entry): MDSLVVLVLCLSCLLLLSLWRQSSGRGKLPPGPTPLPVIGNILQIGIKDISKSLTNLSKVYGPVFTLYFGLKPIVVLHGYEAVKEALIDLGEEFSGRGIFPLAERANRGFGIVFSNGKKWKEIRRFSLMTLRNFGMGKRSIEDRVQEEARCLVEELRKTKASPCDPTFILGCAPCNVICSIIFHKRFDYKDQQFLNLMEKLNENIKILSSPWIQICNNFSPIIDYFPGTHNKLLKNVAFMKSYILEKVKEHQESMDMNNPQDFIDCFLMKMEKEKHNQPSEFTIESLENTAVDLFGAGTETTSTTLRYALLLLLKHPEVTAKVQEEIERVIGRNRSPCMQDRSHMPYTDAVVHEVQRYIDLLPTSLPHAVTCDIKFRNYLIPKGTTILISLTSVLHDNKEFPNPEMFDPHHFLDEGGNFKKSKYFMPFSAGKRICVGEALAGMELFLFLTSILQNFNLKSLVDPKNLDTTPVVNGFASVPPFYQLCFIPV
A further data set has as its target T1, Potassium channel (hERG) (Homo sapiens, UniProt Q12809).
T1 construct: Eurofins (Poitiers, France), contract assay
The data set is described as follows: Binding, potassium channel (hERG). The conditions noted are these: 100 µM; human recombinant (HEK-293 cells). How it is done: (§1) Taking into consideration the structural similarities of molecules described in the current manuscript with their chemical prototypes AS-1 and DK-1, the binding studies toward aforementioned molecular targets were performed commercially for several active substances from each subseries (3, 4, 21, 24, 25, 27, 29, and 30). Furthermore, we also tested two other and well-known targets for AEDs, namely, the Cav2.2 (N-type) calcium channel and gamma-aminobutyric acid (GABA)-A receptor. With the aim of excluding potentially dangerous proarrhythmic properties for each compound, their interaction with the potassium (hERG) channel was also tested.
(§2) Binding studies were carried out commercially in Eurofines Laboratories (Poitiers, France). The functional assays were performed in Eurofins Panlabs Discovery Services Taiwan, Ltd. (New Taipei City, Taiwan). All procedures are described elsewhere (for details, see Table S4 in Supplementary Materials).
(§3) Binding studies were carried out commercially in Eurofines Laboratories (Poitiers, France). The
(§4) functional assays were performed in Eurofins Panlabs Discovery Services Taiwan, Ltd. (New Taipei
(§5) City, Taiwan). All procedures are described elsewhere (Table S4).
(§6) Table S4. In vitro binding and functional assays.
(§7) GABA-A receptor (α1,β2,γ2)
(§8) Potassium channel (hERG) 14
(§9) Cav1.2 (h) calcium ion channel cell based antagonist calcium flux assay 16,17
Background: The hERG channel carries a current that helps repolarise heart muscle cells.

The target in data set [3] is T2, GABA-A receptor (α1,β2,γ2) (Homo sapiens, UniProt P14867+P47870).
T2 construct: Eurofins (Poitiers, France), contract assay
T2 sequence (P14867 28-456): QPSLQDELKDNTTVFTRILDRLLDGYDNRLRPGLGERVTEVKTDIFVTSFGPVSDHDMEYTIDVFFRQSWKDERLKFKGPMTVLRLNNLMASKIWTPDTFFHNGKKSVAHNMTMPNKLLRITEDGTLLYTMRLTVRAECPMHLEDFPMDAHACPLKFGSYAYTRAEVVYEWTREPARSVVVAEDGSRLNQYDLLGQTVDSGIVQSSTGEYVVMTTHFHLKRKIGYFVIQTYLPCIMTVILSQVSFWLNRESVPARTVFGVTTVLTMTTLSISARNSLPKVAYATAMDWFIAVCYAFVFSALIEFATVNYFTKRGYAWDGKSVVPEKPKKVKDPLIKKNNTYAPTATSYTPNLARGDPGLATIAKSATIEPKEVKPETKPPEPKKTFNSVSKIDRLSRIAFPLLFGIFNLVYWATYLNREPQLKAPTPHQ
T2 sequence (P47870 25-512 limits assumed): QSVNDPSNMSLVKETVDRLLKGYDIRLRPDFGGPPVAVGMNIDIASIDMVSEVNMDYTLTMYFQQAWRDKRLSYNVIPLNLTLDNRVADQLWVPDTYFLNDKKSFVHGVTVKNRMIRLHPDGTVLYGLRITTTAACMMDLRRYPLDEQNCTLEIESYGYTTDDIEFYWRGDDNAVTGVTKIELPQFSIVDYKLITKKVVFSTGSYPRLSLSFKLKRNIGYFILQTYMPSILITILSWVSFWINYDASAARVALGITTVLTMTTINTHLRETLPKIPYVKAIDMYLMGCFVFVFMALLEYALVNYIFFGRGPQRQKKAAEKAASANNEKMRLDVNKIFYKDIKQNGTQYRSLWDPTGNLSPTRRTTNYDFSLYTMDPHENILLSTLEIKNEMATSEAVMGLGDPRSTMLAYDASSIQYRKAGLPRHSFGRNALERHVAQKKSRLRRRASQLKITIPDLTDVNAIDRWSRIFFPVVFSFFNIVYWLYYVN
T2 sequence (P18507 40-475 partner): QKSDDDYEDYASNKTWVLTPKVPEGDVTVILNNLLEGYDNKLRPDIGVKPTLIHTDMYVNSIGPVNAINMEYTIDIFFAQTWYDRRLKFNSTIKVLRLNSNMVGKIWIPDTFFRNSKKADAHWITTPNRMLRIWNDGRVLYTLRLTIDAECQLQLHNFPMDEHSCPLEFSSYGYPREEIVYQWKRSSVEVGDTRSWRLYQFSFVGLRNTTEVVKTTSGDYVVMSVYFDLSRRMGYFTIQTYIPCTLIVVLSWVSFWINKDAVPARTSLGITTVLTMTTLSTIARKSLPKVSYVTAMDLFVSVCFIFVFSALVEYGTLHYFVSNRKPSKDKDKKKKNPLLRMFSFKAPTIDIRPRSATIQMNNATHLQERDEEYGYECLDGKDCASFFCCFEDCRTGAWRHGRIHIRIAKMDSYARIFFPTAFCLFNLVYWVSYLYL
The data set is described as follows: Radioligand binding, GABA-A receptor. On the set-up: dose or concentration left out as unconfirmed. The note with it: rat cerebral cortex; read-out: % Inhibition of Control Specific Binding, GABA-A Receptor (α1,β2,γ2) (Agonist Radioligand). As to the method: as §1, §2, §3, §4, §5, §6, §7, §8, §9

Data set [4] deals with motor coordination of mice. As to the kind of experiment: Rotarod test for acute neurological toxicity. The conditions noted are these: for Rotarod test, number of mice / number of mice tested: i.p., 100 mg/kg, 0.5 h. On the technique in general: The rotarod test checks motor coordination on a turning rod.
Data set [5] in a line: Rotarod test for acute neurological toxicity. The note with it: mouse, in vivo, ip.
The target in a further data set is T3, Cav2.2 channel (Rattus norvegicus, UniProt Q02294).
T3 construct: tissue Eurofins (Poitiers, France), contract assay; host or cells: rat cerebral cortex (own knowledge of the vendor's assay)
As to the kind of experiment: Radioligand binding, Cav2.2 channel. Also on record: dose or concentration left out as unconfirmed. The conditions noted are these: rat cerebral cortex; read-out: % Inhibition of Control Specific Binding, Cav2.2 Channel (Antagonist Radioligand). As to the method:
as §1, §2, §3, §4, §5, §6, §7, §8, §9

The test system of a further data set is Na+ channel (site 2). The data set is described as follows: Radioligand binding, Na+ channel (site 2). The note with it: 10 µM; rat cerebral cortex. As to the method: as §1, §2, §3, §4, §5
Table S4. In vitro binding and functional assays. […]

Data set [6] has as its system 6 Hz (32 mA) seizures, mice. The data set is described as follows: Psychomotor 6 Hz (32 mA) seizure model. The format is in vivo. The note with it: Mus musculus, ip; for responders at 100 mg/kg: 0.5 h, read-out: 6 Hz (32 mA) test, number of mice protected / number of mice tested (converted).
The next data set concerns MES seizures, mice. As to the kind of experiment: Maximal electroshock (MES) seizure test. The note with it: Mus musculus, ip; for responders at 100 mg/kg: 0.5 h, i.p.; for ED50: at TPE (0.5 h; LTG 1.0 h), 95% confidence intervals in parentheses. The format is in vivo.
[7] abbreviates: read-out: MES test, number of mice protected / number of mice tested (converted).

T1 sequence (Q12809 whole entry): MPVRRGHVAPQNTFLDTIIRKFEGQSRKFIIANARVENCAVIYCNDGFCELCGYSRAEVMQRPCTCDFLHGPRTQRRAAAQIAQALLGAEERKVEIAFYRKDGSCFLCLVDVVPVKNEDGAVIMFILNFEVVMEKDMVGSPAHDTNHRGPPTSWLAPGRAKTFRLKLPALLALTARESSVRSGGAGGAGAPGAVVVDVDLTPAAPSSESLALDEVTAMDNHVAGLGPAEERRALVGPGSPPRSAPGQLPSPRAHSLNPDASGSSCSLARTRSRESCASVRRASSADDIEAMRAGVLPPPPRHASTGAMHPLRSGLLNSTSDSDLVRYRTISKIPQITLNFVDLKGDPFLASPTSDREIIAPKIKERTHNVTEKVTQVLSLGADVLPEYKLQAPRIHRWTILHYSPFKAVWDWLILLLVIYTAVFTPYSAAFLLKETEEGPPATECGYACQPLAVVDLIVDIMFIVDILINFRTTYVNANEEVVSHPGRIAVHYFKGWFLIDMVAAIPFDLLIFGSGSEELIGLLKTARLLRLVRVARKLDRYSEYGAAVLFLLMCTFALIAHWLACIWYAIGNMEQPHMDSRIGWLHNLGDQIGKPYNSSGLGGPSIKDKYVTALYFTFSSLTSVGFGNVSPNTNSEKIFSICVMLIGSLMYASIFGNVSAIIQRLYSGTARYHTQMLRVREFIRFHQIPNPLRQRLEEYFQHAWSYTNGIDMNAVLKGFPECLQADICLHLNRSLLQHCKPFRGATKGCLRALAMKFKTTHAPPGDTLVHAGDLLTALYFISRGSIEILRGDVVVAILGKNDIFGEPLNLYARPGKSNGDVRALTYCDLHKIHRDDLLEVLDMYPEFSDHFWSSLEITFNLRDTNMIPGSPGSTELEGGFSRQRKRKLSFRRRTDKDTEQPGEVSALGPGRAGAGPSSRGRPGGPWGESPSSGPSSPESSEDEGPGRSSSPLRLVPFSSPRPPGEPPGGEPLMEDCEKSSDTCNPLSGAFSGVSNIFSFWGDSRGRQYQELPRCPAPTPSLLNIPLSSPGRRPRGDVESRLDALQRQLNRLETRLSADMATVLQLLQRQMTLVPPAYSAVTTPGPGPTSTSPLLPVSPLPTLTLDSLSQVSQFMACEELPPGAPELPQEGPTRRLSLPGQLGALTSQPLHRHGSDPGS

In general, Papp refers to the rate of passage across a membrane or cell layer, normalised by area and donor concentration. The inhibition is the share of the control response that was lost under treatment. The TD50 is the dose at which the toxic effect under study appears in half of the subjects. By ED50 is commonly meant the midpoint of the dose-response relation. For the molecule `O=C(Nc1ccccc1F)C(c1ccccc1)N1C(=O)CCC1=O` (stereo not shown) [Compound 4, 2-(2,5-Dioxopyrrolidin-1-yl)-N-(2-fluorophenyl)-2-phenylacetamide], the “parent compound remained in the reaction mixture” value in data set [1] is 71.44% and 71.4%. The molecule also yielded a Papp in data set [2] of 11.2 ± 0.7 ×10⁻⁶ cm/s. Also, the “effect on CYP2C9 activity” value at CYP2C9 is on record as “blocked its activity”. Besides, the “% Inhibition of Control Specific Binding, Potassium Channel (hERG)” value at Potassium channel (hERG) turned out to be 2.3%. Also, the inhibition in data set [3] turned out to be 2.8%; on Cav2.2 channel, 1.1%. Further, the “impairment of motor coordination of mice” value in data set [4] (doses as high as 300 mg/kg) is recorded as “did not impair motor coordination”. Further, in data set [4], the “Rotarod test, number of mice / number of mice tested” value is given as 0/4. The molecule further gave a TD50 at 0.5 h in data set [5] of over 300 mg/kg. Moreover, the “% Inhibition of Control Specific Binding, Na+ Channel (Site 2) (Antagonist Radioligand)” value in the data set on Na+ channel (site 2) was 23.5%. Besides, the responders at 100 mg/kg in data set [6] is 25%; in the data set on MES seizures, mice (setting [7]), 100%. For the same molecule, the ED50 in the data set on MES seizures, mice came out at 73.2 mg/kg.
`O=C(NCCc1cccc(OC(F)(F)F)c1)C(c1ccccc1)N1C(=O)CCC1=O` (stereo not shown) [Compound 30, 2-(2,5-Dioxopyrrolidin-1-yl)-2-phenyl-N-(3-(trifluoromethoxy)phenethyl)acetamide]: in data set [1], the “compound converted into metabolites / metabolized” value is listed as “around 17%”. In data set [1], the “parent compound remained in the reaction mixture” value amounted to 83.39%. In data set [2], the Papp stood at 13.2 ± 1.5 ×10⁻⁶ cm/s. Besides, the “effect on CYP2C9 activity” value on CYP2C9 was “blocked its activity”. The “% Inhibition of Control Specific Binding, Potassium Channel (hERG)” value at Potassium channel (hERG) is on record as 1.7%. Moreover, the results for the inhibition (in [3]; at Cav2.2 channel) were 0.3% and 4%, respectively. Further, the “Rotarod test, number of mice / number of mice tested” value in [4] was 0/4. For the same molecule, the TD50 at 0.5 h in data set [5] amounted to 162 mg/kg. The “% Inhibition of Control Specific Binding, Na+ Channel (Site 2) (Antagonist Radioligand)” value in the data set on Na+ channel (site 2) amounted to 15.8%. Further, the responders at 100 mg/kg in [6] is 75%; in the data set on MES seizures, mice (groups of four, read-out: protection in the MES test), 100%; with MES seizures, mice (setting [7]), 100%. Further, the ED50 in data set [6] (at TPE (0.5 h; LTG 1.0 h), 95% confidence intervals in parentheses) worked out at 39.5 mg/kg; in the data set with MES seizures, mice, 45.6 mg/kg.
